From patent US7736911B2, “Activity-based probes for protein tyrosine phosphatases” (Albert Einstein College of Medicine of Yeshiva University, priority 2004, dated 2010) come the findings set out here.

Data set [1] relates to panel of non-PTP enzymes/proteins. Format: binding.
In data set [2] the test system is PTPs: YopH, PTP1B, HePTP, SHP2, FAP-1, PTPα, DEP-1, VHR, Cdc14, PRL3, low molecular weight PTP. Format: binding. To be noted: pH 6.
The test system of data set [3] is total cell lysates from E. coli. The class given is binding.
Data set [4] relates to PTPs, including PTP1B, HePTP, SHP2, LAR, PTPα, PTPH1, VHR, and Cdc14. As to the kind of experiment: PTP inactivation by BBP-based probes, several PTPs (pNPP substrate). The class given is biochemical. As to conditions: for effectiveness at inhibiting PTP activity, I compared with II: pNPP as substrate.
Data set [5] in a line: Stability of probe in buffers and toward nucleophiles (NMR and mass spectrometry).
A short description of data set [6]: Solubility in aqueous solution. Format: physicochemical. To be noted: compared with II.

For `O=C(CCCCC1SCC2NC(=O)NC21)NCc1ccc(C(Br)P(=O)(O)O)cc1` (stereo not shown) [Compound I, [Bromo-(4-{[5-(2-oxo-hexahydro-thieno[3,4-d]imidazol-6-yl)-pentanoylamino]-methyl}-phenyl)-methyl]-phosphonic acid], the “reactivity towards non-PTP enzymes/proteins” value in data set [1] was “none of the proteins tested were reactive”. Further, the “covalent labeling of PTPs” value in data set [2] is “covalently incorporated into all PTPs tested”. Further, in data set [3], the “labeling of E. coli proteins” value was “no E. coli proteins were labeled”. In data set [4], the “effect of scavenging nucleophiles on rate of PTP inactivation” value is listed as “did not affect the rate” and the “effectiveness at inhibiting PTP activity, I compared with II” value is reported as “equally effective at inhibiting PTP activity”. The “reversibility of PTP inactivation” value in data set [4] (extensive dialysis and/or buffer exchange of the reaction mixture) is given as “irreversible”. Further, in data set [5] (48 hours with 100 mM DTT, 50 mM azide or 50 mM cysteine, pH 6 or 7 buffers), the “reaction with nucleophilic agents” value is given as “did not produce the expected substitution products”. Further, the stability in buffer result in data set [5] (pH 6 buffers) is recorded as “quite stable”. Besides, the “stability in buffer (solvolysis)” value in data set [5] (pH>7) is on record as “significant solvolysis could be detected”. The “solubility in aqueous solution” value in data set [6] is given as “better solubility in aqueous solution”.
Regarding `O=C(CCCCC1SCC2NC(=O)NC21)NCCCCCC(=O)NCc1ccc(C(Br)P(=O)(O)O)cc1` (stereo not shown) [Compound II, {Bromo-[4-({6-[5-(2-oxo-hexahydro-thieno[3,4-d]imidazol-6-yl)-pentanoylamino]-hexanoylamino}-methyl)-phenyl]-methyl}-phosphonic acid], the “effectiveness at inhibiting PTP activity, I compared with II” value in data set [4] was “equally effective at inhibiting PTP activity”.
With `O=C(O)CCCC[C@@H]1SC[C@@H]2NC(=O)N[C@@H]21` [biotin, reference compound], the “covalent labeling of PTPs” value in data set [2] is “did not label the PTPs”.
For arsenate [reference compound], the “protection of PTP from BBP-mediated inactivation” value in data set [4] is listed as “able to protect PTP from BBP-mediated inactivation”.
